Like-named read-outs stand apart in the source and are kept apart here.
Legend:
[1] = system: health-associated type II P. acnes strains; assay: Extracellular porphyrin production in culture, health-associated type II strains; type: cell-based, Propionibacterium acnes
Protocol: (§1) P. acnes strains and cultures.
(§2) Extraction, identification, and quantification of extracellular porphyrins. For each strain, porphyrins were extracted using the method described by Kang et al. (Sci Transl Med 7:293ra103 (2015)). Briefly, 500 μL of bacterial culture was extracted in ethyl acetate and acetic acid (4:1, v/v), and solubilized in 1.5M HCl. The absorbance at 405 nm was measured from 200 μL of the soluble phase using a Tecan Genios Spectrophotometer M1000 (Tecan US Inc, Morrisville, N.C.). The standard curve to convert absorbance to concentration was generated using coproporphyrin III standards of known concentration (C654-3, Frontier Sci). Porphyrin levels were measured in P. acnes strain KPA171202 using the quantification method described by Wollenberg et al. (MBio 5:e01286-01214 (2014)). […] Porphyrins were extracted from cultures at stationary phase. […] Bacterial culture density was measured at OD595 for normalization of porphyrin levels. For mass spectrometry experiments, extracted porphyrins were directly injected onto an Agilent 6460 Triple Quad LC/MS system and each strain's m/z in the negative ion mode was identified.
(§3) Statistical analysis for porphyrin production comparisons. The average amount of porphyrins produced by each strain under each culture condition was calculated based on the data from at least three independent experiments, with at least three replicates for each. The porphyrin levels between strains, groups (acne-associated vs. health-associated), and culture conditions (with treatment vs. without treatment) were estimated in a linear mixed effect model, with random intercepts by trial to account for trial effects. P-values for specific comparisons among groups were corrected using Tukey's method. All statistical analysis was performed using R software (version 3.1.3).
(§4) To investigate whether different P. acnes strains produce the same porphyrin species, the types of porphyrins secreted by multiple P. acnes strains where characterized using mass spectrometry. Four acne-associated type IA-2 strains, HL053PA1 (RT4), HL045PA1 (RT4), HL043PA1 (RT5), and HL043PA2 (RT5), and three health-associated type II strains, HL001PA1 (RT2), HL103PA1 (RT2), and HL042PA3 (RT6), were examined (Table 1). No difference in the porphyrin species produced by these P. acnes strains was observed. Coproporphyrin III was the dominant porphyrin isomer produced by all strains ([M+H]^+=655.3). Minimal amounts of coproporphyrin I were also detected. Porphyrin levels are measured with the following method. Bacterial cells are collected, and porphyrins are extracted. The concentration of porphyrins is measured spectrophotometrically and normalized to the optical density (also measured spectrophotometrically). Porphyrin levels are therefore measured per bacterial unit.

[2] = system: acne-associated type IA-2 P. acnes strains; type: cell-based, Propionibacterium acnes
Protocol: as §1, §2, §3, §4

[3] = system: P. acnes strains; type: cell-based, Propionibacterium acnes
Protocol: Common to most of the RT4 and RT5 strains, these strains harbor mutations in their 16S and 23S rRNA genes, which confer antibiotic resistance. […] To confirm the findings, an additional three type II strains, HL110PA3, HL106PA1, and HL050PA2, were also tested. […] For each experiment, 5 mL of reinforced clostridial broth was inoculated with 5×10^5 P. acnes cells per mL of culture. Cultures were grown to stationary phase anaerobically at 37° C. in a light-protected box. Cultures were supplemented on day 0 with vitamin B12 (10 μg/mL), 5-ALA (0.1 mg/mL), and/or LA (0.1 mg/mL). As controls, P. acnes strains were also cultured without supplementation. Three to five independent experiments with at least three replicates per experiment were performed for each strain, except strains HL110PA3, HL106PA1, and HL050PA2, which were tested in only one experiment with three replicates.
Extraction, identification, and quantification of extracellular porphyrins. For each strain, porphyrins were extracted using the method described by Kang et al. (Sci Transl Med 7:293ra103 (2015)). Briefly, 500 μL of bacterial culture was extracted in ethyl acetate and acetic acid (4:1, v/v), and solubilized in 1.5M HCl. The absorbance at 405 nm was measured from 200 μL of the soluble phase using a Tecan Genios Spectrophotometer M1000 (Tecan US Inc, Morrisville, N.C.). The standard curve to convert absorbance to concentration was generated using coproporphyrin III standards of known concentration (C654-3, Frontier Sci). Porphyrin levels were measured in P. acnes strain KPA171202 using the quantification method described by Wollenberg et al. (MBio 5:e01286-01214 (2014)). […] Porphyrins were extracted from cultures at stationary phase. […] Bacterial culture density was measured at OD595 for normalization of porphyrin levels. […]

[4] = system: P. acnes; settings: 0.1 mg/mL LA (range 0.1 to 1.0 mg/mL assessed)
Source text: P. acnes strains and cultures. […] Four RT4 and RT5 P. acnes strains, HL053PA1, HL045PA1, HL043PA1, and HL043PA2, were selected to represent type IA-2 strains, which were associated with the disease based on a 16S metagenomic study (J Invest Dermatol 133:2152-2160 (2013)). […] Three RT2 and RT6 strains, HL001PA1, HL103PA1, and HL042PA3, were selected to represent type II strains that were associated with healthy skin. To confirm the findings, an additional three type II strains, HL110PA3, HL106PA1, and HL050PA2, were also tested. […] For each experiment, 5 mL of reinforced clostridial broth was inoculated with 5×10^5 P. acnes cells per mL of culture. Cultures were grown to stationary phase anaerobically at 37° C. in a light-protected box. Cultures were supplemented on day 0 with vitamin B12 (10 μg/mL), 5-ALA (0.1 mg/mL), and/or LA (0.1 mg/mL). As controls, P. acnes strains were also cultured without supplementation. Three to five independent experiments with at least three replicates per experiment were performed for each strain, except strains HL110PA3, HL106PA1, and HL050PA2, which were tested in only one experiment with three replicates.

[5] = system: cbiL (vitamin B12 biosynthesis gene) in HL025PA1; assay: cbiL gene expression by qRT-PCR, HL025PA1; type: cell-based, Propionibacterium acnes; settings: 10 μg/mL vitamin B12
Protocol: (§5) RNA extraction and cDNA synthesis. For cbiL and deoR gene expression analysis, cells were lysed with bead beating. Total RNA was extracted using the standard phenol-chloroform method and purified using RNeasy kit (Qiagen). DNA was removed using the Turbo DNA-free kit (Life Technologies). RNA quality was assessed using gel electrophoresis. Single-stranded complementary DNA (cDNA) was synthesized using SuperScript III First-Strand Synthesis SuperMix (Life Technologies).
(§6) Analysis of cbiL gene expression. qRT-PCR was performed using the LightCycler 480 High Resolution Melting Master Mix (Roche) on a LightCycler 480 (Roche) with the following primers: cbiL-forward, 5′-[…]-3′ (SEQ ID NO: 1), and cbiL-reverse, 5′-[…]-3′ (SEQ ID NO: 2). The following qRT-PCR protocol was used: initial denaturation at 95° C. for 5 min, followed by 50 cycles of 95° C. for 10 sec, 62° C. for 30 sec, and 72° C. for 30 sec. The fold change in cbiL gene expression between cultures with vitamin B12 supplementation and cultures without supplementation was calculated. The gene expression level of cbiL in each sample was normalized against the 16S rRNA transcript level. Melting curve analysis was performed using the Light Cycler 480 software Version 1.5 (Roche) to verify the specificity of the amplified products based on their melting temperatures. All reactions were run in triplicate.

[6] = system: P. acnes strain HL025PA1; assay: Extracellular porphyrin production in culture, type I strain with deoR; type: cell-based, Propionibacterium acnes; settings: 10 μg/mL vitamin B12
Protocol: as §1
as §2, with “For mass spectrometry experiments, extracted porphyrins were directly injected onto an Agilent 6460 Triple Quad LC/MS system and each strain's m/z in the negative ion mode was identified.” left out
Statistical analysis for porphyrin production comparisons. The average amount of porphyrins produced by each strain under each culture condition was calculated based on the data from at least three independent experiments, with at least three replicates for each. […]

[7] = system: cbiL (vitamin B12 biosynthesis gene) in acne-associated type IA-2 strains; assay: cbiL gene expression by qRT-PCR, type IA-2 strains; type: cell-based, Propionibacterium acnes; settings: 10 μg/mL vitamin B12 vs without, normalized to 16S rRNA
Protocol: as §5, §6

[8] = system: cbiL (vitamin B12 biosynthesis gene) in health-associated type II strains; assay: cbiL gene expression by qRT-PCR, type II strains; type: cell-based, Propionibacterium acnes; settings: 10 μg/mL vitamin B12 vs without, normalized to 16S rRNA
Protocol: as §5, §6

Q: How did the “average fold increase in porphyrin production” value ([1]; 0.1 mg/mL 5-ALA only vs untreated controls, P≤0.06 except HL001PA1) turn out when `NCC(=O)CCC(=O)O` [5-ALA, 5-aminolevulinic acid] was run?
A: 3.4 fold

Q: And the “average fold increase in porphyrin production” value ([2]; 0.1 mg/mL 5-ALA only vs untreated controls, P<0.0001)?
A: 2.2 fold

Q: How did the “reduction of porphyrins by LA in combination with vitamin B12” value [2] turn out when `CC(=O)CCC(=O)O` [LA, levulinic acid] was run?
A: no significant reduction of porphyrins

Q: What about the “average reduction of porphyrin production compared to untreated cultures” value [3] of the same compound?
A: 30%

Q: What about the “effect on bacterial growth” value [4] of the same compound?
A: did not significantly affect the bacterial growth

Q: Which results are given for vitamin B12?
A: average porphyrin level with vitamin B12 supplementation ([1]; 10 μg/mL vitamin B12, 1.1 μM without, P≥0.77): 1.1 µM; further enhancement of porphyrin production compared to substrate only ([1]; 10 μg/mL vitamin B12 in combination with 0.1 mg/mL 5-ALA, P≥0.94): not in health-associated type II strains; counteraction by vitamin B12 of the inhibition of porphyrin biosynthesis by LA ([1]; 0.1 mg/mL LA with 10 μg/mL vitamin B12): not in health-associated type II strains; effect of vitamin B12 on porphyrin production level ([1]; strains HL110PA3, HL106PA1, HL050PA2, 10 μg/mL): not significantly affected; effect on vitamin B12 biosynthesis gene expression [5]: transcriptional repression; average porphyrin level with vitamin B12 supplementation ([2]; 10 μg/mL vitamin B12, increasing from 6.5 μM without): 9.2 µM; fold increase in porphyrin production compared to substrate only ([2]; 10 μg/mL vitamin B12 in combination with 0.1 mg/mL 5-ALA): 2.7 fold; effect of vitamin B12 on porphyrin production [6]: unaffected; response of porphyrin production to vitamin B12 supplementation ([3]; type I strains, FIG. 12): increased porphyrin production; response of porphyrin production to vitamin B12 supplementation ([3]; type II and type III strains, data not shown): not observed; average fold change of cbiL gene expression [7]: 0.74 fold; average fold change of cbiL gene expression [8]: 0.24 fold

From patent US20210137997A1 (priority 2016, published 2021)
